Measurements from publication PMC9907012, “Synthesis and characterisation of new antimalarial fluorinated triazolopyrazine compounds” (Beilstein Journal of Organic Chemistry, 2023).
Where two headings read alike, the source gives them in different places.

How the values were obtained:
[1] = system: P. falciparum Dd2 (chloroquine, pyrimethamine and mefloquine drug-resistant strain); experiment: In vitro anti-plasmodial image-based assay, P. falciparum Dd2; format: cell-based, Plasmodium falciparum; settings: for inhibition at 80 µM / IC50: Plasmodium falciparum, DD2; for inhibition at 80 µM: top dose of 80 µM, read-out: Pf Dd2 inhibition at the top dose (no IC50 given); for IC50: 72 h incubation, read-out: Pf Dd2 IC50 ± SD; for SI for Dd2: SI = HEK293 IC50/parasite IC50
Procedure: (§1) S4: In vitro anti-plasmodial image-based assay
(§2) Plasmodium falciparum 3D7 and Dd2 parasites were cultured in RPMI1640 (Life Technologies, Camarillo, CA, USA) supplemented with 2.5 mg/mL Albumax II, 5% AB human serum, 25 mM HEPES, and 0.37mM hypoxanthine. Ring stage parasites were treated with compounds following two rounds of sorbitol synchronization, as previously described.
(§3) Following incubation of assay plates for 72 h at 37 °C, and 5% CO2 and 5% O2, parasites were stained with 2-(4-amidinophenyl)-1H-indole-6-carboxamidine (DAPI) and imaged using an Opera PhenixTM High Content Screening System (PerkinElmer, Waltham, MA, USA). Images were analysed using Harmony software (PerkinElmer, Waltham, MA, USA).
(§4) S5: In vitro cytotoxicity assay
(§5) Human embryonic kidney (HEK293) cells were maintained in DMEM (Life Technologies, Camarillo, CA, USA) containing 10% FBS (Hyclone™ ThermoFisher, Melbourne, Australia).
(§6) Cytotoxicity testing was undertaken, as previously described. In brief, 5 μL of test compound was added to the well of black/clear tissue culture-treated, 384-well plates containing 3000 adherent HEK 293 cells/well in 45 μL and incubated 72 h at 37 °C in 5% CO2.
(§7) After incubation, the supernatant was removed and replaced with 40 μL of 10% Alamar Blue per well. Plates were incubated for 5−6 h and measured for fluorescence at 530 -nm excitation and 595-nm emission. The % inhibition was calculated using 0.4% DMSO (no inhibition) and […]
(§8) IC 50 values were obtained by plotting % inhibition against log dose using GraphPad Prism v.6 (San Diego, CA, USA) nonlinear regression with a […]

[2] = system: P. falciparum 3D7 (chloroquine-sensitive strain); experiment: In vitro anti-plasmodial image-based assay, P. falciparum 3D7; format: cell-based, Plasmodium falciparum; settings: for inhibition at 80 µM / IC50: Plasmodium falciparum, 3D7; for inhibition at 80 µM: top dose of 80 µM, read-out: Pf 3D7 inhibition at the top dose (no IC50 given); for IC50: 72 h incubation, read-out: Pf 3D7 IC50 ± SD; for SI for 3D7: SI = HEK293 IC50/parasite IC50
Procedure: as §1, §2, §3, §4, §5, §6, §7, §8

[3] = system: Plasmodium falciparum (Pf); settings: previous study; read-out: IC50 (antimalarial activity); cited from earlier work
[4] = values marked d are estimated IC50 as a plateau of inhibition was not reached

| Compound | inhibition at 80 µM [1] | inhibition at 80 µM [2] | IC50 ([1]; controls) | SI for Dd2 [1] | IC50 ([2]; controls) | SI for 3D7 [2] | IC50 [1, 4] | IC50 [2, 4] | melting point | IC50 [3] |
| --- | --- | --- | --- | --- | --- | --- | --- | --- | --- | --- |
| CCOc1cncc2nnc(-c3ccc(OC(F)F)cc3)n12 [Compound 7, 3-(4-(difluoromethoxy)phenyl)-5-ethoxy-[1,2,4]triazolo[4,3-a]pyrazine] | < 81% | < 81% |  |  |  |  |  |  |  |  |
| COc1ccc(C[C@H](N)C(=O)N[C@H]2[C@@H](O)[C@H](n3cnc4c(N(C)C)ncnc43)O[C@@H]2CO)cc1 [Puromycin, reference compound] |  |  | 0.102 ± 0.0095 µM | 98 | 0.079 ± 0.0057 µM | 127 |  |  |  |  |
| CCc1nc(N)nc(N)c1-c1ccc(Cl)cc1 [Pyrimethamine, reference compound] | < 33% |  |  |  | 0.0152 ± 0.0012 µM | >657 |  |  |  |  |
| FC(F)Oc1ccc(-c2nnc3c(C(F)(F)F)ncc(OCCc4ccccc4)n23)cc1 [Compound 10, 3-(4-(Difluoromethoxy)phenyl)-5-phenethoxy-8-(trifluoromethyl)-[1,2,4]triazolo[4,3-a]pyrazine] |  |  |  | >4 |  | >7 | 17.1 ± 0.71 µM | 11.3 ± 1.45 µM |  |  |
| FC(F)Oc1ccc(-c2nnc3cncc(Cl)n23)cc1 [Compound 1] |  |  |  | >2 |  | >2 | 34.5 ± 4.46 µM | 45.2 ± 5.42 µM |  |  |
| N#Cc1ccc(-c2nnc3c(C(F)(F)F)ncc(OCCc4ccccc4)n23)cc1 [Compound 16, 4-(5-Phenethoxy-8-(trifluoromethyl)-[1,2,4]triazolo[4,3-a]pyrazin-3-yl)benzonitrile] |  |  |  | >2 |  | >4 | 45.1 ± 6.58 µM | 22.5 ± 1.03 µM |  |  |
| FC(F)Oc1ccc(-c2nnc3cncc(OCCc4ccccc4)n23)cc1 [Compound 4] |  |  |  | >312 |  | >329 | 0.26 ± 0.01 µM | 0.24 ± 0.01 µM |  |  |
| N#Cc1ccc(-c2nnc3cncc(OCCc4ccccc4)n23)cc1 [Compound 6, 4-(5-phenethoxy-[1,2,4]triazolo[4,3-a]pyrazin-3-yl)benzonitrile] |  |  |  | >68 |  | >70 | 1.17 ± 0.09 µM | 1.15 ± 0.05 µM | 136 to 138 °C |  |
| CCOc1cncc2nnc(-c3ccc(Cl)cc3)n12 [Compound 8, 3-(4-chlorophenyl)-5-ethoxy-[1,2,4]triazolo[4,3-a]pyrazine] |  |  |  | >27 |  | >29 | 2.91 ± 0.18 µM | 2.72 ± 0.03 µM |  |  |
| FC(F)c1ncc(OCCc2ccccc2)n2c(-c3ccc(Cl)cc3)nnc12 [Compound 15, 3-(4-Chlorophenyl)-8-(difluoromethyl)-5-phenethoxy-[1,2,4]triazolo[4,3-a]pyrazine] |  |  |  | >6 |  | >4 | 14.3 ± 2.26 µM | 18.8 ± 0.21 µM |  |  |
| Clc1ccc(-c2nnc3cncc(Cl)n23)cc1 [Compound 2] |  |  |  | >4 |  | >4 | 17.1 ± 0.43 µM | 18.9 ± 0.63 µM |  | 12.6 µM |
| FC(F)(F)c1ncc(OCCc2ccccc2)n2c(-c3ccc(Cl)cc3)nnc12 [Compound 13, 3-(4-Chlorophenyl)-5-phenethoxy-8-(trifluoromethyl)-[1,2,4]triazolo[4,3-a]pyrazine] |  |  |  | >8 |  | >9 | 10.2 ± 0.75 µM | 9.43 ± 0.44 µM |  |  |
| N#Cc1ccc(-c2nnc3cncc(Cl)n23)cc1 [Compound 3] |  |  |  | >3 |  | >2 | 26.2 ± 1.01 µM | 35.5 ± 3.33 µM |  |  |
| FC(F)Oc1ccc(-c2nnc3c(C(F)F)ncc(OCCc4ccccc4)n23)cc1 [Compound 12, 3-(4-(Difluoromethoxy)phenyl)-8-(difluoromethyl)-5-phenethoxy-[1,2,4]triazolo[4,3-a]pyrazine] |  |  |  | >4 |  | >5 | 19.6 ± 0.42 µM | 16.4 ± 1.13 µM |  |  |
| N#Cc1ccc(-c2nnc3c(C(F)F)ncc(OCCc4ccccc4)n23)cc1 [Compound 18, 4-(8-(Difluoromethyl)-5-phenethoxy-[1,2,4]triazolo[4,3-a]pyrazin-3-yl)benzonitrile] |  |  |  | >1 |  | >3 | 58.6 ± 1.68 µM | 31 ± 2.37 µM | 109 to 111 °C |  |
| Clc1ccc(-c2nnc3cncc(OCCc4ccccc4)n23)cc1 [Compound 5, 3-(4-chlorophenyl)-5-phenethoxy-[1,2,4]triazolo[4,3-a]pyrazine] |  |  |  | >364 |  | >396 | 0.22 ± 0.01 µM | 0.2 ± 0.02 µM | 131 to 132 °C |  |
| CC(F)(F)c1ncc(OCCc2ccccc2)n2c(-c3ccc(C#N)cc3)nnc12 [Compound 17, 4-(8-(1,1-Difluoroethyl)-5-phenethoxy-[1,2,4]triazolo[4,3-a]pyrazin-3-yl)benzonitrile] | < 33% | < 33% |  |  |  |  |  |  |  |  |
